Data: patent publication US7820648B2, “Pyrimidine derivatives for the treatment of abnormal cell growth” (Pfizer Inc, priority 2005, dated 2010)

melting point: 108 to 112 °C
Compound: CC(=O)N1[C@@H]2CC[C@H]1c1ccc(Nc3ncc(C)c(NC4CC4)n3)cc12
